# Source: patent US8293755B2, “Treatment of statin side effects using uridine derivatives” (Magral Pty Ltd., priority 2001, dated 2012)
# Several values for one entry are separate records, joined by “and”; a condition that tells them apart may be missing. Equal values may be shown once.
# Columns and labels:
# Type in all cases: in vivo, human
# [1] = system: statin induced muscle pain; test: Pilot clinical study: McGill Pain Questionnaire scores (PRI, PPI) in statin patients given magnesium orotate; set-up: key to PRI—Pain Rating Index: McGill PRI; higher scores = more pain; conditions: for PPI—Present Pain Intensity: score 0 to 5; for PPI—Present Pain Intensity / PRI—Pain Rating Index: 1600 mg/day magnesium orotate
# Description: (§1) Table 1 outlines data for seventeen patients (numbered #i-#xvii) undergoing statin therapy for treatment of hypercholesterolemia and who had reported suffering from varying levels of muscular pain and fatigue. This study is ongoing but the results below follow the study in relation to these patients for varying periods, from day 0 (T0d) up to a maximum of 56 days (T56d).
# (§2) The design of the clinical trial involves a blood sample being taken from the patients prior to commencing medication administration and then on four further occasions during the 13 week trial, at around days 13-16, days 26-30, days 35-60 and finally at days 80-90. Patients were also required to submit answers to a questionnaire on approximately a weekly basis to enable patients to be scored for pain using the McGill Pain Questionnaire (Melzack, R., 1975 “The McGill Pain Questionnaire: Major Properties and Scoring Methods”. Pain 1:277-299, the disclosure of which is included herein in its entirety by way of reference) scales for Pain Rating Index (PRI) and Present Pain Intensity (PPI). In the PRI index, which comprises two scores, higher scores indicate increasing levels of pain. In the PPI index present pain is given a score of 0 to 5, where 0 represents no pain and 5 represents excruciating pain. Patients were also scored prior to commencement of the trial medication for fatigue using the Fatigue Impact Scale (Fisk, J. D. et al, 1994, “Measuring the functional impact of fatigue: Initial Validation of the Fatigue Impact Scale”, Clinical Infectious Disease, 18 (Suppl 1):S79-83, the disclosure of which is included herein in its entirety by way of reference). On the first week at the clinic, prior to commencement of the trial medication, details of the patients' statin medication were recorded and daily doses noted.
# (§3) After the pre-trial medication blood samples and questionnaires were taken (T0d) patients commenced taking daily doses of 1600 mg of magnesium orotate, administered as 2×400 mg tablets, morning and evening.
# (§4) A preliminary statistical analysis of the results of the PRI, PPI and FIS tests for the patients on the trial as a group are presented in Table 3, below.
# statin induced fatigue = test: Pilot clinical study: Fatigue Impact Scale (FIS) in statin patients given magnesium orotate; set-up: FIS—Fatigue Impact Scale: scale not given here; conditions: for FIS—Fatigue Impact Scale: 1600 mg/day magnesium orotate
# Description: as §1, §2, §3, §4
# [2] = Pilot clinical study: monitoring of blood serum components
# Description: as §2, §3
# Blood samples were taken prior to commencement of trial medication (T0d) and after approximately 14 (T14d), 28 (T28d), 42 (T42d) and 56 (T56d) days to determine individual to baseline levels of uridine (μg/ml) arising from magnesium orotate (MgOr) administration, to thereby monitor patient compliance. Blood samples taken were also used to determine creatine kinase concentration (CK) (units/L), gamma glutaryl transferase (GGT) concentration, aspartate amino transferase (AST) concentration and alanine aminotransferase concentration (ALT) (units/L), as well as serum lipid levels including total cholesterol concentration, high density lipoprotein (HDL-CHOL) concentration, low density lipoprotein (LDL-CHOL) concentration, tryglyceride (TRIG) concentration and levels of other serum components routinely tested for including magnesium ion concentration.
# [3] = most patients undergoing the magnesium orotate therapy
# [4] = patients within the normal ranges at commencement of the trial
substance,measurement,setting,value
magnesium orotate,PPI—Present Pain Intensity,"[1]; T7d, baseline in T0d",2 (4×) and 1 (9×) and 0 (3×)
same,PRI—Pain Rating Index,[1]; T14d,9 (2×) and 8 and 28 and 16 and 23 and 42 and 4 and 7 and 15 and 37 and 2 and 3 and 0 and 6
same,PPI—Present Pain Intensity,[1]; T14d,2 (6×) and 1 (9×)
same,PRI—Pain Rating Index,[1]; T21d,9 (2×) and 8 (2×) and 24 and 13 and 15 and 42 and 2 and 35 and 0 and 3 and 12
same,PPI—Present Pain Intensity,[1]; T21d,2 (5×) and 1 (7×) and 0
same,PRI—Pain Rating Index,[1]; T28d,2 (3×) and 3 (2×) and 11 and 4 and 0
same,PPI—Present Pain Intensity,[1]; T28d,1 (4×) and 0 (3×) and 2
same,PRI—Pain Rating Index,[1]; T35d,0
same,PPI—Present Pain Intensity,[1]; T35d,0
same,PRI—Pain Rating Index,[1]; T42d,0
same,PPI—Present Pain Intensity,[1]; T42d,0
same,PRI—Pain Rating Index,[1]; T49d,0
same,PPI—Present Pain Intensity,[1]; T49d,0
same,PRI—Pain Rating Index,[1]; T56d,0
same,PPI—Present Pain Intensity,[1]; T56d,0
same,PRI and PPI pain scores,[1]; [3],significant improvements
same,FIS—Fatigue Impact Scale,"statin induced fatigue; T7d, baseline in T0d",0 and 19 and 9 and 23 and 88 and 7 and 24 and 17 and 101 and 5 and 47 and 77 and 44 and 40 and 6 and 21
same,FIS—Fatigue Impact Scale,statin induced fatigue; T14d,0 and 38 and 25 and 86 (2×) and 9 (3×) and 32 and 49 and 3 and 48 and 31 and 11 and 21
same,FIS—Fatigue Impact Scale,statin induced fatigue; T21d,0 and 19 and 18 and 39 and 92 and 4 and 30 and 8 and 91 and 10 and 67 and 21 and 3
same,FIS—Fatigue Impact Scale,statin induced fatigue; T28d,0 and 22 and 51 and 1 and 7 and 77 and 9 and 50
same,FIS—Fatigue Impact Scale,statin induced fatigue; T35d,0 and 22
same,FIS—Fatigue Impact Scale,statin induced fatigue; T42d,0 and 13
same,FIS—Fatigue Impact Scale,statin induced fatigue; T49d,0
same,FIS—Fatigue Impact Scale,statin induced fatigue; T56d,0
same,FIS fatigue score,statin induced fatigue; [3],significant improvements
same,serum uridine concentration,"[2]; all patients on the trial, data not presented",increase
same,GGT serum concentration,"[2]; day 43, only patient significantly outside normal range at commencement, dropped from 96 U/L at day 0",83 U/L
same,AST serum concentration,"[2]; day 43, same patient, dropped from 56 U/L at commencement",42 U/L
same,ALT serum concentration,"[2]; day 43, same patient, dropped from 105 U/L at commencement",74 U/L
same,alanine amino transferase (ALT) serum concentration,[2]; [4],no significant impact
same,aspartate amino transferase (AST) serum concentration,[2]; [4],no significant impact
same,gamma glutaryl transferase (GGT) serum concentration,[2]; [4],no significant impact
same,serum creatine kinase concentration (CK),[2]; [4],no significant impact
